In US11596692B1 (Incyte Corporation, priority 2018, dated 2023):

Columns and labels:
PD-L1 [1] = molecular target: T1, PD-L1 (Homo sapiens (Human), UniProt Q9NZQ7); experiment: Indirect whole blood PD-L1 internalization assay; type: cell-based; conditions: interferon γ, 18 hours, CD14+ gated
Experimental: To determine PD-L1 internalization in human whole blood, normal human blood (Biological Specialty Corp, Colmar. Pa.) was incubated in the presence or absence of a concentration range of test compounds and 1 ng/ml human interferon γ (R&D Systems Inc. Minn. Minn.) in a 96 well round bottom plate (Corning, Corning, N.Y.) for 18 hours at 37° C. Blood was then transferred into 96 well “2 ml Assay Block” (Corning, Corning N.Y.) and stained with PD-L1 (MIH1, eBioscience; or BD Biosciences San Jose, Calif.), CD14 (Life Technologies, Carlsbad, Calif.) for 30 minutes in the dark at room temperature. Whole Blood/red cells were lysed/fixed (lysis buffer BD Biosciences) for 5 minutes at 37° C. in dark and then centrifuged at 1600 RPM for 5 minutes and cells were transferred into 96 well round bottom plates (Corning). Cells were gated on CD14+ (BD Biosciences) and PD-L1 expression determined by mean fluorescence intensity (MFI) (BD LSRFortessa™ X-20). IC50 determination was performed by fitting the curve of compound percent inhibition versus the log of the compound concentration using the GraphPad Prism 7.0 software.

PD-L1 [2] = molecular target: T1, PD-L1; experiment: Indirect PD-L1 internalization assay using MDA-MB231 cells; type: cell-based; conditions: 16 hrs
Experimental: For the indirect analysis, cell surface PD-L1 was detected with fluorescently labeled anti-PD-L1 (CD274) antibodies. CHO-PD-L1 cells were seeded at 2×10^5 cells per well of a 6-well tissue culture plate in 2 ml of F-12 medium supplemented with 10% FBS, 200 μg/ml Hydromycin and 250 μg/ml Geneticin and allowed to attach for 24 hours. After 24 hours, test compounds were added to a final concentration of 1 uM from DMSO stocks, and an equal volume of DMSO was added to control wells. Cells were incubated in the presence of a compound for 16 hours at 37° C., 5% CO2. Prior to analysis, the cells were washed twice with 1 mL of Ca, Mg free PBS and detached with 1 mL of lift buffer (10 mM Tris, 140 mM NaCl, 1 mM EDTA). The collected cells were stained with PE-conjugated mouse anti-human CD274 antibody according to manufacturer instructions: BD Pharmigen #557924 Clone MIH1 (20 μL of Ab per 100 uL of BSA based staining buffer) or eBioscience #12-5983 Clone MIH1 (2 μL per 100 ul of BSA based staining buffer). Cells were incubated at room temperature for 20 minutes, protected from light, washed twice with Ca, Mg free PBS and resuspended in 400 μL of PBS. Antibody binding was detected by flow cytometry using an Accuri C6 instrument. Isotype control antibody-stained cells were used as a negative control. To test that lack of PD-L1 cell surface staining was not due to inhibition of detection antibody binding by the test article, an acid-wash procedure was used. After 16 hours of incubation in the presence of a compound or anti-PD-L1 antibody, the remaining, non-internalized a compound or antibody was stripped from the cell surface using freshly prepared, ice-cold acid stripping buffer (DMEM/0.2% BSA, pH 3.5). Cells were washed in this manner three times for 5 minutes each on a shaking platform. The stripped cells were then washed with ice-cold PBS three times for 5 minutes each with gentle shaking, harvested with lift buffer and stained with PE-mouse anti human CD274 antibodies as described.
For the indirect method of assessing PD-L1 internalization using the MDA-MB231 breast cancer cell line, the procedure for the assays was the same as described for the CHO-PD-L1 cells with the following changes. MDA-MB231 were seeded at 2×10^5 cells per well of a 6-well tissue culture plate in 2 ml of RPMI1640 medium supplemented with 10% FBS. After compound treatment for 16 hrs, the cells were treated with the stripping buffer (DMEM/0.2% BSA, pH 3.5) prior to staining with the anti-CD274 antibodies as described.

PD-1/PD-L1 = PD-1/PD-L1 (Homo sapiens (Human), UniProt Q9NZQ7); experiment: PD-1/PD-L1 binding assay (Alphascreen)
Chain of PD-1/PD-L1 (Q9NZQ7 19-238): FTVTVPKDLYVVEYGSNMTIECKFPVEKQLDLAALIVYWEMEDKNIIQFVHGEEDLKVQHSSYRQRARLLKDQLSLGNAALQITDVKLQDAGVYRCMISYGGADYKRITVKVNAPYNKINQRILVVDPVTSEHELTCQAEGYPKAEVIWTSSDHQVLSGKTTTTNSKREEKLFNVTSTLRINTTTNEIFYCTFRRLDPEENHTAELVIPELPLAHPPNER
Experimental: Binding assays were conducted in a low volume white 384-well polystyrene plate in a final volume of 20 μL. Compounds to be analyzed were first serially diluted in DMSO and added to the plate wells before the addition of other reaction components. The final concentration of DMSO in the assay was 1%. The assay was carried out at 25° C. in the PBS buffer (pH 7.4) with 0.05% Tween-20 and 0.1% BSA. Recombinant human PD-L1 protein (19-238) with a His-tag at the C-terminus was purchased from AcroBiosystems (PD1-H5229). Recombinant human PD-1 protein (25-167) with Fc tag at the C-terminus was also from AcroBiosystems (PD1-H5257). PD-L1 and PD-1 proteins were diluted in the assay buffer (final concentration—0.67 and 0.20 nM respectively) and 10 μL was added to the plate well. Plates were centrifuged and proteins were preincubated with compounds for 40 minutes. The incubation was followed by the addition of 10 μL of assay buffer supplemented with Alphascreen Ni chelate donor beads (PerkinElmer—AS101D) and Protein A Acceptor beads (PerkinElmer—6760137) at final concentration 2.5 μg/mL under reduced light. After plate sealing, the plate was incubated in the dark at room temperature for 120 minutes before reading on a PHERAstar FS plate reader (BMG Labtech). IC50 determination was performed by fitting the curve of percent control activity versus the log of the compound concentration using the GraphPad Prism 5.0 software.

IRF3 = IRF3 activation assay in THP-1 Dual cells; type: cell-based; conditions: Homo sapiens, THP-1, Table 4C; read-out: THP1 IRF3 EC50
Summary of the method: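 THP-1 Dual cells (100,000/well) were treated with serially diluted compound for 24 h at 37° C, 5% CO2. IRF3 reporter activity in supernatant was read with QUANTI-Blue as absorbance at 620-655 nm after 2 h, with untreated cells as negative control. EC50 came from fitting percent control activity against log concentration.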

[3] = tested on: IFNβ production in CD11b+ monocytes; experiment: IFN-beta induction in CD11b+ monocytes from healthy donor PBMC; type: cell-based, human; conditions: Homo sapiens, CD11b+ monocyte cultures, 20 hours, mean ± SEM
Experimental: (§1) CD11b^+ cells were isolated from healthy PBMCs as well as Pleural effusion samples using Miltenyi isolation kit according to manufacturer's protocol. Cells were seeded in 96 well plates at the density of 300,000 cells/wells, and then treated with various concentrations of compounds for 20 hours. After 20 hours, IFN-beta secretion levels were evaluated in the culture supernatants by MSD singleplex assay. EC50 values were calculated using Prism software.
(§2) Different naked STING agonisst and PD-L1-targeted small molecule-STING agonist conjugates were added to CD11b^+ monocytes cultures isolated from healthy donor blood or lung cancer patients' pleural effusions. Culture supernatants were collected 20 hours later and IFNβ production were determined using MSD singleplex assay.

[4] = tested on: IFNβ production in CD11b+ monocytes; experiment: IFN-beta induction in CD11b+ monocytes from lung cancer pleural effusions; type: cell-based, human; conditions: Homo sapiens; CD11b+ monocyte cultures, lung cancer pleural effusion, 20 hours; read-out: EC50 for IFNβ induction, Cancer patient
Experimental: as §1, §2

T1 sequence (Q9NZQ7 19-290): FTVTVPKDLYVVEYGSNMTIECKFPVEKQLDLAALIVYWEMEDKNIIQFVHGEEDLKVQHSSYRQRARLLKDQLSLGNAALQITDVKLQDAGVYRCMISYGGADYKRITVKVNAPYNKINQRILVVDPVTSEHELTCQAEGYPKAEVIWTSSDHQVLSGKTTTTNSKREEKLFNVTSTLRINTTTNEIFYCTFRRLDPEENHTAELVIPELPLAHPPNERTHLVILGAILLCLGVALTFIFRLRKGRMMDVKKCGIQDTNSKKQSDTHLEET

IC50 (PD-L1 [1]) [nM]	IC50 (PD-L1 [2]) [nM]	IC50 (PD-1/PD-L1) [nM]	EC50 (IRF3) [nM]	EC50 [4] [nM]	SMILES	EC50 [3] [nM]
< 100	< 10	0.1 to 1			Cc1c(NC(=O)c2nc3c(n2C)CCN(C[C@H](C)O)C3)cccc1-c1cccc(NC(=O)c2nc3c(n2C)CCN(C)C3)c1Cl [Example P8]	
100 to 1000	10 to 100	0.1 to 1			Cc1c(-c2nc3cc(CN4CC[C@@H](C(=O)O)C4)cc(C#N)c3o2)cccc1-c1cccc(-c2nc3c(s2)CNCC3)c1C [Example P12]	
			≤ 50	56	CCn1nc(C)cc1C(=O)Nc1nc2cc(C(N)=O)cc(OCCCNC(=O)OCC(=O)O)c2n1C/C=C/Cn1c2nc(-c3cc(C)nn3CC)ncc2c2cc(C(N)=O)cc(OCCCOC)c21 [Example S45, (E)-2-(((3-((5-carbamoyl-1-(4-(6-carbamoyl-2-(1-ethyl-3-methyl-1H-pyrazol-5-yl)-8-(3-methoxypropoxy)-9H-pyrimido[4,5-b]indol-9-yl)but-2-en-1-yl)-2-(1-ethyl-3-methyl-1H-pyrazole-5-carboxamido)-1H-benzo[d]imidazol-7-yl)oxy)propyl)carbamoyl)oxy)acetic acid]	119 ± 22
< 100		0.1 to 1			Cc1c(-c2nc3cc(CN4CC[C@@H](C(=O)O)C4)cc(C#N)c3o2)cccc1-c1cccc(NC(=O)c2nc3c(n2C)CCN(C)C3)c1Cl [Example P22]	
< 100		0.1 to 1			Cc1c(NC(=O)c2nc3c(n2C)CCN(C2CCOCC2)C3)cccc1-c1cccc(NC(=O)c2nc3c(n2C)CCN(C)C3)c1Cl [Example P9]	
< 100	< 10	0.1 to 1			Cc1c(NC(=O)c2nc3c(n2C)CCN(C[C@@H](C)O)C3)cccc1-c1cccc(NC(=O)c2nc3c(n2C)CCN(C)C3)c1Cl [Example P10]	
			≤ 50	38	CCn1nc(C)cc1C(=O)Nc1nc2cc(C(N)=O)cc(OCCCOC(=O)NCCC(=O)O)c2n1C/C=C/Cn1c2nc(-c3cc(C)nn3CC)ncc2c2cc(C(N)=O)cc(OCCCOC)c21 [Example S48, (E)-3-(((3-((5-carbamoyl-1-(4-(6-carbamoyl-2-(1-ethyl-3-methyl-1H-pyrazol-5-yl)-8-(3-methoxypropoxy)-9H-pyrimido[4,5-b]indol-9-yl)but-2-en-1-yl)-2-(1-ethyl-3-methyl-1H-pyrazole-5-carboxamido)-1H-benzo[d]imidazol-7-yl)oxy)propoxy)carbonyl)amino)propanoic acid]	64 ± 12
100 to 1000	> 500	0.1 to 1			Cc1c(-c2nc3cc(CN4CC[C@@H](C(=O)O)C4)cc(C#N)c3o2)cccc1-c1cccc(-n2cc3c(n2)CN(C(C)C)CC3)c1Cl [Example P19]	
100 to 1000	10 to 100	0.1 to 1			Cc1c(-c2nc3c(C#N)cc(CN4CC[C@@H](O)C4)cn3n2)cccc1-c1cccc(-c2nc3cc(CN4CC[C@@H](C(=O)O)C4)cc(C#N)c3o2)c1C [Example P26]	
< 100	< 10	0.1 to 1			Cc1c(Nc2nccc3cc(CN4CC[C@@H](O)C4)cnc23)cccc1-c1cccc(-c2nc3cc(CC4CC[C@@H](C(=O)O)C4)cc(C#N)c3o2)c1C (stereo partly shown) [Example P14]	
1000 to 5000	10 to 100	0.1 to 1			Cc1c(-c2nc3c(Cl)cc(CN4CC[C@@H](O)C4)cn3n2)cccc1-c1cccc(-c2nc3cc(CN4CC[C@@H](C(=O)O)C4)cc(C#N)c3o2)c1C [Example P25]	
100 to 1000	10 to 100	0.1 to 1			Cc1c(Nc2nccc3cc(CN4CC[C@@H](O)C4)cnc23)cccc1-c1cccc(-c2nc3cc(CN4CC(C(=O)O)C4)cc(Cl)c3o2)c1C [Example P24]	
100 to 1000	10 to 100	0.1 to 1			Cc1c(-c2nc3cc(CN4CC[C@@](C)(C(=O)O)C4)cc(C#N)c3o2)cccc1-c1cccc(Nc2nccc3cc(CN4CC[C@H](O)C4)cnc23)c1Cl [Example P16]	
100 to 1000		0.1 to 1			Cc1c(Nc2nccc3cc(CN4CC[C@@H](O)C4)cnc23)cccc1-c1cccc(Nc2nccc3cc(CN4CC[C@@H](C(=O)O)C4)cnc23)c1C [Example P18]	
100 to 1000	10 to 100	0.1 to 1			Cc1c(Nc2nccc3cc(CN4CC[C@H](C(=O)O)C4)cnc23)cccc1-c1nccc(Nc2nccc3cc(CN4CC[C@@H](O)C4)cnc23)c1C [Example P23]	
100 to 1000	10 to 100	0.1 to 1			Cc1c(Nc2nccc3cc(CN4CC[C@@H](O)C4)cnc23)cccc1-c1cccc(-c2nc3cc(CNCC(C)(C)C(=O)O)cc(C#N)c3o2)c1C [Example P21]	
100 to 1000		0.1 to 1			Cc1c(Nc2nccc3cc(CN4CC[C@@H](O)C4)cnc23)cccc1-c1cccc(-c2nc3cc(CN4CC(C(=O)O)C4)cc(C#N)c3o2)c1C [Example P20]	
100 to 1000	100 to 500	0.1 to 1			Cc1c(Nc2nccc3cc(CN4CC[C@@H](O)C4)cnc23)cccc1-c1cccc(-c2nc3c(Cl)cc(CN4CC[C@@H](C(=O)O)C4)cn3n2)c1C [Example P17]	

SMILES	IC50 (PD-L1 [1]) [nM]	IC50 (PD-L1 [2]) [nM]	IC50 (PD-1/PD-L1) [nM]	EC50 (IRF3) [nM]	EC50 [4] [nM]	EC50 [3] [nM]
Cc1c(Nc2nccc3cc(CN4CC[C@@H](O)C4)cnc23)cccc1-c1cccc(-c2nc3cc(CN4CC[C@@H](C(=O)O)C4)cc(C#N)c3o2)c1C [Example P15]	100 to 1000		0.1 to 1			
